{
  "source": "patent US20220119431A1",
  "about": "“SALT OF EGFR INHIBITOR, CRYSTAL FORM, AND PREPARATION METHOD THEREFOR” (priority 2019, published 2022)",
  "assay_type_in_all_cases": "physicochemical",
  "key": {"[1]": {"test": "Stability test, accelerated conditions 40° C./75% RH (Test Example 3)", "details": "40° C. ± 2° C./75% RH ± 5% RH", "method": "(§1) Constant temperature and humidity chamber, model: LDS-800Y, condition: 40° C./75% RH and 25° C./60% RH.\n(§2) Influencing factor experimental conditions (high temperature of 60° C., high humidity of 75% RH, illumination): an appropriate amount of crystalline form A of the compound of formula (IIA) was placed in a dry and clean open weighing bottle, then the bottle was placed into a dryer under different conditions, and then placed into a corresponding thermostat for observation. The bottle was taken out after being placed for 5 days, 10 days and 30 days, and related substances and contents thereof were measured. Accelerated and long-term experimental conditions (40° C./75% RH, 25° C./60% RH): an appropriate amount of crystalline form A of the compound of formula (IIA) was filled into a double-layer LDPE bags, each layer of LDPE bag was sealed by a binding buckle, then put into an aluminum foil bag for heat sealing, and then put into a corresponding thermostat to observe acceleration and long-term stability."}, "[2]": {"test": "Stability test, long-term conditions 25° C./60% RH (Test Example 3)", "details": "25° C. ± 2° C./60% RH ± 5% RH", "method": "as §1, §2"}, "[3]": {"test": "Stability test, accelerated test 40° C./75% RH (Test Example 4)", "details": "40° C. ± 2° C., 75% RH ± 5% RH", "text": "The conditions and the method for the raw material stability test are mainly based on related requirements such as “Guidelines for the Stability Test of APIs and Preparations” (General Principles 9001 of the Four Parts of the Chinese Pharmacopoeia, 2015 Edition) and technical guidelines for stability study on chemical drugs (raw materials and preparations) issued by the National Medical Products Administration in February, 2015 (revised), and are specifically shown in Table 14."}, "[4]": {"test": "Stability test, influencing factors (illumination, high temperature, high humidity)", "method": "Illumination test chamber, model: SHH-100GD-2, conditions: 5000±500 lux (visible light) and 90 mw/cm^2 (ultraviolet).\nElectric heating blast drying oven, model: GZX-9140MBE condition: 60° C.\nConstant temperature and humidity chamber, model: SHH-250SD, condition: 25° C./75% RH.\nas §2"}, "[5]": {"details": "High humidity (25° C./75% RH), Day 5"}, "[6]": {"details": "High temperature (60° C.), Day 5"}, "[7]": {"details": "High temperature (60° C.), Day 10"}, "[8]": {"details": "High temperature (60° C.), Day 30"}, "[9]": {"details": "Light stability experiment, Day 5"}, "[10]": {"details": "Light stability experiment, Day 10"}},
  "data": [
    {"smiles": "COc1cc(N2CCC(N3CCN(C)CC3)CC2)c(C)cc1Nc1ncc(Br)c(Nc2ccc3nccnc3c2P(C)(C)=O)n1", "values": [
      {"measurement": "Content", "setting": "[1]; 0 day", "result": 97.3, "unit": "%"},
      {"measurement": "Total impurities", "setting": "[1]; 0 day", "result": 1.63, "unit": "%"},
      {"measurement": "Content", "setting": "[1]; 1 month", "result": 99.1, "unit": "%"},
      {"measurement": "Total impurities", "setting": "[1]; 1 month", "result": 1.71, "unit": "%"},
      {"measurement": "Content", "setting": "[1]; 2 months", "result": 98.1, "unit": "%"},
      {"measurement": "Total impurities", "setting": "[1]; 2 months", "result": 1.50, "unit": "%"},
      {"measurement": "Content", "setting": "[1]; 3 months", "result": 98.6, "unit": "%"},
      {"measurement": "Total impurities", "setting": "[1]; 3 months", "result": 1.56, "unit": "%"},
      {"measurement": "Content", "setting": "[1]; 6 months", "result": 97.9, "unit": "%"},
      {"measurement": "Total impurities", "setting": "[1]; 6 months", "result": 1.61, "unit": "%"},
      {"measurement": "Content", "setting": "[2]; 0 day", "result": 97.3, "unit": "%"},
      {"measurement": "Total impurities", "setting": "[2]; 0 day", "result": 1.63, "unit": "%"},
      {"measurement": "Content", "setting": "[2]; 3 months", "result": 99, "unit": "%"},
      {"measurement": "Total impurities", "setting": "[2]; 3 months", "result": 1.61, "unit": "%"},
      {"measurement": "Content", "setting": "[2]; 6 months", "result": 98.2, "unit": "%"},
      {"measurement": "Total impurities", "setting": "[2]; 6 months", "result": 1.73, "unit": "%"},
      {"measurement": "Content", "setting": "[2]; 9 months", "result": 99.4, "unit": "%"},
      {"measurement": "Total impurities", "setting": "[2]; 9 months", "result": 1.83, "unit": "%"},
      {"measurement": "Content", "setting": "[2]; 12 months", "result": 97.7, "unit": "%"},
      {"measurement": "Total impurities", "setting": "[2]; 12 months", "result": 1.69, "unit": "%"},
      {"measurement": "Sum of impurities", "setting": "[3]; month 0", "result": 1.18, "unit": "%"},
      {"measurement": "Water", "setting": "[3]; month 0", "result": 3.0, "unit": "%"},
      {"measurement": "Sum of impurities", "setting": "[3]; month 1", "result": 1.10, "unit": "%"},
      {"measurement": "Water", "setting": "[3]; month 1", "result": 3.0, "unit": "%"},
      {"measurement": "Sum of impurities", "setting": "[3]; month 2", "result": 1.18, "unit": "%"},
      {"measurement": "Water", "setting": "[3]; month 2", "result": 3.5, "unit": "%"},
      {"measurement": "Sum of impurities", "setting": "[3]; month 3", "result": 1.30, "unit": "%"},
      {"measurement": "Water", "setting": "[3]; month 3", "result": 3.2, "unit": "%"},
      {"measurement": "Sum of impurities", "setting": "[3]; month 6", "result": 1.18, "unit": "%"},
      {"measurement": "Water", "setting": "[3]; month 6", "result": 2.8, "unit": "%"},
      {"measurement": "Content", "setting": "[4]; [5]", "result": 99.6, "unit": "%"},
      {"measurement": "Total impurities", "setting": "[4]; [5]", "result": 1.41, "unit": "%"},
      {"measurement": "Content", "setting": "[4]; [6]", "result": 99.1, "unit": "%"},
      {"measurement": "Total impurities", "setting": "[4]; [6]", "result": 1.59, "unit": "%"},
      {"measurement": "Content", "setting": "[4]; [7]", "result": 101.6, "unit": "%"},
      {"measurement": "Total impurities", "setting": "[4]; [7]", "result": 1.63, "unit": "%"},
      {"measurement": "Content", "setting": "[4]; [8]", "result": 99.4, "unit": "%"},
      {"measurement": "Total impurities", "setting": "[4]; [8]", "result": 1.71, "unit": "%"},
      {"measurement": "Content", "setting": "[4]; Initial value", "result": 97.3, "unit": "%"},
      {"measurement": "Total impurities", "setting": "[4]; Initial value", "result": 1.63, "unit": "%"},
      {"measurement": "Content", "setting": "[4]; [9]", "result": 97.1, "unit": "%"},
      {"measurement": "Total impurities", "setting": "[4]; [9]", "result": 1.99, "unit": "%"},
      {"measurement": "Content", "setting": "[4]; [10]", "result": 95.1, "unit": "%"},
      {"measurement": "Total impurities", "setting": "[4]; [10]", "result": 2.21, "unit": "%"}
    ]}
  ]
}
